These molecules were tested against Solute carrier organic anion transporter family member 2A1 (Rattus norvegicus, UniProt Q00910) (assay: TP_TRANSPORTER: inhibition of PGF2alpha uptake in PGT-expressing HeLa cells).
Assay type: functional, cell-based

Structure (SMILES)	Ki
Cc1c(C2(c3cc(Br)c(O)c(Br)c3C)OS(=O)(=O)c3ccccc32)cc(Br)c(O)c1Br [BROMCRESOL GREEN]	3.6 µM
NS(=O)(=O)c1cc(C(=O)O)c(NCc2ccco2)cc1Cl [FUROSEMIDE]	47 µM
CC1(C)C(/C=C/C=C/C=C/C=C2\N(CCCCS(=O)(=O)O)c3ccc4ccccc4c3C2(C)C)=[N+](CCCCS(=O)(=O)[O-])c2ccc3ccccc3c21 [INDOCYANINE GREEN]	35 µM
O=C1OC(c2ccc(O)c(S(=O)(=O)O)c2)(c2ccc(O)c(S(=O)(=O)O)c2)c2c(Br)c(Br)c(Br)c(Br)c21 [SULFOBROMOPHTHALEIN SODIUM]	5.8 µM
